Values of other authors, collected in patent US20160347856A1, “Use of Anti-MUC1 Maytansinoid Immunoconjugate Antibody for the Treatment of Solid Tumors” (SANOFI, priority 2013, published 2016).

How the values were obtained:
[1] = poor therapeutic effects because of high systemic toxicity; Foster et al. (1996), Wolff et al. (1996)
[2] = Bhuyan et al. (1982)
[3] = test system: mice; details: single intravenous dose of 12.5 μg/kg; Reynolds et al. (1986)

| SMILES | Clinical evaluation [1] | Potency in vitro relative to doxorubicin, methotrexate and vincristine [2] | Toxicity after administration to mice [3] |
| --- | --- | --- | --- |
| Cc1c[nH]c2c1[C@@]13C[C@@H]1CN(C(=O)c1cc4cc(NC(=O)c5cc6ccccc6o5)ccc4[nH]1)C3=CC2=O [Adozelesin] | disappointing results | – | – |
| COc1c(O)c2c(c3cc(C(=O)N4CCc5c4c(O)c(OC)c4[nH]c(C(=O)N6CC7CC78C6=CC(=O)c6[nH]cc(C)c68)cc54)[nH]c13)CCN2C(N)=O (stereo not shown) [CC-1065] | – | about 1000 fold | delayed hepatotoxicity leading to mortality on day 50 |
| CCN(CC)c1ccc2cc(C(=O)Nc3ccc4[nH]c(C(=O)N5C[C@@H](CCl)c6c5cc(OC(=O)Nc5ccccc5)c5[nH]cc(C)c65)cc4c3)oc2c1 [Carzelesin] | disappointing results | – | – |
